Tested on: K86415-001-R-J1-PDC complex spheroids, viability
Assay: Anticancer human tumor K86415-001-R-J1-PDC patient-derived lung adenocarcinoma cell line growth inhibition [RAS]
Settings: for IC50: curve of first compound; for viability, T/C: stronger effect = lower value
Method in brief: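 Multi-cell-type spheroids: tumor cells plus HUVEC endothelial cells and mesenchymal stem cells. RAS-pathway inhibitors were combined with targeted agents, each dosed in half-log steps down from clinical Cmax, or from 10 microM when Cmax was unknown.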

[1] = second compound 0.00316 µM, first compound 0.0316 µM
[2] = second compound 0.00316 µM, first compound 0.1 µM
[3] = second compound 0.00316 µM, first compound 0.316 µM
[4] = second compound 0.00316 µM, first compound 1 µM
[5] = second compound 0.00316 µM, first compound 3.16 µM
[6] = second compound 0.00316 µM, first compound 10 µM
[7] = second compound 0.01 µM, first compound 0.0316 µM
[8] = second compound 0.01 µM, first compound 0.1 µM
[9] = second compound 0.01 µM, first compound 0.316 µM
[10] = second compound 0.01 µM, first compound 1 µM
[11] = second compound 0.01 µM, first compound 3.16 µM
[12] = second compound 0.01 µM, first compound 10 µM
[13] = second compound 0.0316 µM, first compound 0.0316 µM
[14] = second compound 0.0316 µM, first compound 0.1 µM
[15] = second compound 0.0316 µM, first compound 0.316 µM
[16] = second compound 0.0316 µM, first compound 1 µM
[17] = second compound 0.0316 µM, first compound 3.16 µM
[18] = second compound 0.0316 µM, first compound 10 µM
[19] = second compound 0.1 µM, first compound 0.0316 µM
[20] = second compound 0.1 µM, first compound 0.1 µM
[21] = second compound 0.1 µM, first compound 0.316 µM
[22] = second compound 0.1 µM, first compound 1 µM
[23] = second compound 0.1 µM, first compound 3.16 µM
[24] = second compound 0.1 µM, first compound 10 µM
[25] = second compound 0.316 µM, first compound 0.0316 µM
[26] = second compound 0.316 µM, first compound 0.1 µM
[27] = second compound 0.316 µM, first compound 0.316 µM
[28] = second compound 0.316 µM, first compound 1 µM
[29] = second compound 0.316 µM, first compound 3.16 µM
[30] = second compound 0.316 µM, first compound 10 µM
[31] = second compound 1 µM, first compound 0.0316 µM
[32] = second compound 1 µM, first compound 0.1 µM
[33] = second compound 1 µM, first compound 0.316 µM
[34] = second compound 1 µM, first compound 1 µM
[35] = second compound 1 µM, first compound 3.16 µM
[36] = second compound 1 µM, first compound 10 µM
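Note: spheroids exposed to agents for seven days before readout.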

Cc1nc(N2CCC3(CC2)COC(C)C3N)c(CO)nc1Sc1ccnc(N)c1Cl (stereo unspecified) + C=CC(=O)N1CCN(c2nc(OCC3CCCN3C)nc3c(F)c(-c4nc(N)cc(C)c4C(F)(F)F)c(Cl)cc23)C(C)C1
IC50 (second compound 0.00316 µM): < 31.6 nM | IC50 (second compound 0.01 µM): < 31.6 nM | IC50 (second compound 0.0316 µM): < 31.6 nM | IC50 (second compound 0.1 µM): < 31.6 nM | IC50 (second compound 0.316 µM): < 31.6 nM | IC50 (second compound 1 µM): < 31.6 nM | viability, T/C [1]: 11.5% | viability, T/C [2]: 8.95% | viability, T/C [3]: 6.72% | viability, T/C [4]: 5.03% | viability, T/C [5]: 3.59% | viability, T/C [6]: 4.75% | viability, T/C [7]: 12.1% | viability, T/C [8]: 8.08% | viability, T/C [9]: 5.96% | viability, T/C [10]: 4.7% | viability, T/C [11]: 4.74% | viability, T/C [12]: 5.17% | viability, T/C [13]: 9.15% | viability, T/C [14]: 6.95% | viability, T/C [15]: 4.4% | viability, T/C [16]: 3.81% | viability, T/C [17]: 3.74% | viability, T/C [18]: 3.64% | viability, T/C [19]: 8.22% | viability, T/C [20]: 5.86% | viability, T/C [21]: 5.7% | viability, T/C [22]: 3.75% | viability, T/C [23]: 4.37% | viability, T/C [24]: 3.87% | viability, T/C [25]: 7.37% | viability, T/C [26]: 6.35% | viability, T/C [27]: 4.21% | viability, T/C [28]: 4.09% | viability, T/C [29]: 4.08% | viability, T/C [30]: 3.28% | viability, T/C [31]: 7.46% | viability, T/C [32]: 7.12% | viability, T/C [33]: 6.04% | viability, T/C [34]: 4.71% | viability, T/C [35]: 4.06% | viability, T/C [36]: 4.08%

NC1c2ccccc2OC12CCN(c1cnc3c(N4CCCc5ncccc54)n[nH]c3n1)CC2 (stereo unspecified) + C=CC(=O)N1CCN(c2nc(OCC3CCCN3C)nc3c(F)c(-c4nc(N)cc(C)c4C(F)(F)F)c(Cl)cc23)C(C)C1
IC50 (second compound 0.00316 µM): < 31.6 nM | IC50 (second compound 0.01 µM): < 31.6 nM | IC50 (second compound 0.0316 µM): < 31.6 nM | IC50 (second compound 0.1 µM): < 31.6 nM | IC50 (second compound 0.316 µM): < 31.6 nM | IC50 (second compound 1 µM): < 31.6 nM | viability, T/C [1]: 7.58% | viability, T/C [2]: 6.46% | viability, T/C [3]: 4.66% | viability, T/C [4]: 5.77% | viability, T/C [5]: 4.88% | viability, T/C [6]: 5.36% | viability, T/C [7]: 7.19% | viability, T/C [8]: 5.33% | viability, T/C [9]: 4.69% | viability, T/C [10]: 4.12% | viability, T/C [11]: 4.26% | viability, T/C [12]: 4.5% | viability, T/C [13]: 6.59% | viability, T/C [14]: 6.76% | viability, T/C [15]: 4.64% | viability, T/C [16]: 4.27% | viability, T/C [17]: 4.76% | viability, T/C [18]: 5.5% | viability, T/C [19]: 5.65% | viability, T/C [20]: 6.03% | viability, T/C [21]: 4.11% | viability, T/C [22]: 3.86% | viability, T/C [23]: 4.33% | viability, T/C [24]: 4.71% | viability, T/C [25]: 6.32% | viability, T/C [26]: 6.11% | viability, T/C [27]: 4.53% | viability, T/C [28]: 4.12% | viability, T/C [29]: 6.47% | viability, T/C [30]: 5.1% | viability, T/C [31]: 5.95% | viability, T/C [32]: 6.16% | viability, T/C [33]: 5% | viability, T/C [34]: 4.63% | viability, T/C [35]: 5.74% | viability, T/C [36]: 5.91%

Nc1ccn(C2OC(CO)C(O)C2(F)F)c(=O)n1 (stereo unspecified) + C=CC(=O)N1CCN(c2nc(OCC3CCCN3C)nc3c(F)c(-c4nc(N)cc(C)c4C(F)(F)F)c(Cl)cc23)C(C)C1
IC50 (second compound 0.00316 µM): < 3.16 nM | IC50 (second compound 0.01 µM): < 3.16 nM | IC50 (second compound 0.0316 µM): < 3.16 nM | IC50 (second compound 0.1 µM): < 3.16 nM | IC50 (second compound 0.316 µM): < 3.16 nM | IC50 (second compound 1 µM): < 3.16 nM | viability, T/C (second compound 0.00316 µM, first compound 0.00316 µM): 18.1% | viability, T/C (second compound 0.00316 µM, first compound 0.01 µM): 16.6% | viability, T/C [1]: 14.9% | viability, T/C [2]: 14.7% | viability, T/C [3]: 17.8% | viability, T/C [4]: 17.2% | viability, T/C (second compound 0.01 µM, first compound 0.00316 µM): 16.1% | viability, T/C (second compound 0.01 µM, first compound 0.01 µM): 12.8% | viability, T/C [7]: 9.45% | viability, T/C [8]: 11.5% | viability, T/C [9]: 9.75% | viability, T/C [10]: 11.1% | viability, T/C (second compound 0.0316 µM, first compound 0.00316 µM): 11% | viability, T/C (second compound 0.0316 µM, first compound 0.01 µM): 12.7% | viability, T/C [13]: 10.5% | viability, T/C [14]: 9.28% | viability, T/C [15]: 11% | viability, T/C [16]: 10.4% | viability, T/C (second compound 0.1 µM, first compound 0.00316 µM): 9.91% | viability, T/C (second compound 0.1 µM, first compound 0.01 µM): 9.83% | viability, T/C [19]: 9.05% | viability, T/C [20]: 9.1% | viability, T/C [21]: 11.7% | viability, T/C [22]: 11.4% | viability, T/C (second compound 0.316 µM, first compound 0.00316 µM): 11% | viability, T/C (second compound 0.316 µM, first compound 0.01 µM): 10.5% | viability, T/C [25]: 11% | viability, T/C [26]: 8.77% | viability, T/C [27]: 11.1% | viability, T/C [28]: 8.63% | viability, T/C (second compound 1 µM, first compound 0.00316 µM): 10.2% | viability, T/C (second compound 1 µM, first compound 0.01 µM): 11.9% | viability, T/C [31]: 10.3% | viability, T/C [32]: 11.7% | viability, T/C [33]: 11.7% | viability, T/C [34]: 8.61%
